Results: patent US20260226084A1, “DUAL RAF AND TUBULIN INHIBITORS AND METHODS OF USE THEREOF” (Deciphera Pharmaceuticals, LLC, priority 2023, published 2026)
Read-outs that look alike come from different tables or passages of the source.

Columns and labels:
[1] = biological target: T1, C-Raf kinase (SEQ ID NO: 2) (Homo sapiens, UniProt P04049, Y340D/Y341D); assay: Biochemical Assay for C-Raf (coupled pyruvate kinase/lactate dehydrogenase assay); conditions: 1 mM ATP; read-out: CRAF (inhibition of biochemical activity, IC50)
T1 construct: C-Raf residues 306-end; Y340D, Y341D with; GST (N); purchased Sigma

MiaPaca-2 cells = assay: MiaPaca-2 Cell Proliferation Assay; type: cell-based; conditions: Table 2, read-out: Inhibition of cell proliferation in MiaPaca-2 (IC50 class)
Procedure, shortened: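 Viability was read as resazurin fluorescence (540 nm excitation, 600 nm emission) after 5–6 h with dye. Compounds were tested as serial dilutions in triplicate, with IC50 derived from the dose–response.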

Pa16c cells = assay: Pa16c Cell Proliferation Assay; type: cell-based; conditions: Table 2, read-out: Inhibition of cell proliferation in Pa16c (IC50 class)
Procedure, shortened: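 Proliferation read-out: resazurin fluorescence (540 nm excitation, 600 nm emission) after an extra 18 to 24 h. Before that, compound dilution series (triplicate) stayed on 750 Pa16c cells/well in complete DMEM/10% FBS for 67 to 72 h at 37° C. IC50 values derived from the curves.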

[2] = biological target: T2, B-Raf kinase (SEQ ID NO: 1) (Homo sapiens, UniProt P15056); assay: Biochemical Assay for B-Raf (coupled pyruvate kinase/lactate dehydrogenase assay); conditions: 1 mM ATP; read-out: BRAF (inhibition of biochemical activity, IC50)
T2 construct: GST (N); purchased Sigma

HCT-116 cells = assay: HCT-116 Cell Proliferation Assay; type: cell-based; conditions: Table 2, read-out: Inhibition of cell proliferation in HCT-116 (IC50 class)
Procedure, shortened: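 IC50 values come from resazurin fluorescence (540 nm excitation, 600 nm emission) added for 4 to 5 h after compound treatment. Treatment: serially diluted compound in triplicate on 375 HCT-116 cells per well in complete McCoy's 5A/10% FBS, 67 to 72 hours, 37 °C, 5% CO2.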

HPAF-II cells = assay: HPAF-II Cell Proliferation Assay; type: cell-based; conditions: HPAF-II cells, Table 2, read-out: Inhibition of cell proliferation in HPAF-II (IC50 class)
Procedure, shortened: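 Viability read-out was resazurin fluorescence (540 nm excitation, 600 nm emission), developed 18–24 h after a 115–120 h compound exposure of 750 HPAF-II cells per well in MEM/10% FBS at 37 °C. Compound was tested as a serial dilution in triplicate, and IC50 values were calculated.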

[3] = Homo sapiens, MIA PaCa-2, MiaPaca-2 cells
[4] = Homo sapiens, HCT-116, HCT-116 cells

T1 sequence (P04049 307-648 Y340D/Y341D): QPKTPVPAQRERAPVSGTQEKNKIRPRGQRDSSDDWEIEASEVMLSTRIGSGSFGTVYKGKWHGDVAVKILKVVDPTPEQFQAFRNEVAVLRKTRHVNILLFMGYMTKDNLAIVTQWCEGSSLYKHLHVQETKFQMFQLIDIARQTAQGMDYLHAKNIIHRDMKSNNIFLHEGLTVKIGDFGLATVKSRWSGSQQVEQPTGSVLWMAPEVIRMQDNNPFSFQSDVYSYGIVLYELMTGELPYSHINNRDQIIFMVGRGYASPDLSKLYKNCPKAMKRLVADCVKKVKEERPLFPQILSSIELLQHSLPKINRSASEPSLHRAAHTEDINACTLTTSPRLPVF
T2 sequence (P15056 416-766): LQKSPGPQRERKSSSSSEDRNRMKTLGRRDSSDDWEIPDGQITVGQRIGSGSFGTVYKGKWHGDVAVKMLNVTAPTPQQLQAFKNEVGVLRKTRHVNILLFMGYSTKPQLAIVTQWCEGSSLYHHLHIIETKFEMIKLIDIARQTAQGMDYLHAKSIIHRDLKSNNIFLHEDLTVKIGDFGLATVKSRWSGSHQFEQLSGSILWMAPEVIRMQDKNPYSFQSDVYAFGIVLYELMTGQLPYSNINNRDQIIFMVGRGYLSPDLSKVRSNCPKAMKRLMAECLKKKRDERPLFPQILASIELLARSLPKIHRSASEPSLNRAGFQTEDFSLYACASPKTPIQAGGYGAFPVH

SMILES | IC50 [1] [µM] | IC50 (MiaPaca-2 cells; [3]) [µM] | IC50 (Pa16c cells) [µM] | IC50 [2] [µM] | IC50 (HCT-116 cells; [4]) [µM] | IC50 (HPAF-II cells; Homo sapiens, HPAF-II) [µM] | IC50 (MiaPaca-2 cells; MiaPaca-2 cells) [µM] | IC50 (HCT-116 cells; HCT-116 cells) [µM] | IC50 (HPAF-II cells) [µM]
COCC(=O)Nc1cc(-c2cc(-c3cc(NC(=O)c4cc(C(F)(F)F)cnn4)ccc3C)ccn2)ccn1 [Example 48] | < 0.1 | < 0.1 | < 0.1 | < 0.1 | < 0.1 | 0.1 to 0.5 | – | – | –
O=C(Nc1ccc(F)c(-c2ccnc(-c3ccnc(NC(=O)C4CC4)c3)c2)c1)c1cc(C(F)(F)F)cnn1 [Example 47] | < 0.1 | 1 to 10 | 1 to 10 | < 0.1 | 1 to 10 | 1 to 10 | – | – | –
Cc1ccc(NC(=O)c2cc(C(F)(F)F)cnn2)cc1-c1ccnc(-c2ccnc(NC(=O)C3(C)CCC3)c2)c1 [Example 7] | 0.1 to 0.5 | 0.1 to 0.5 | 0.1 to 0.5 | 0.5 to 1 | 0.1 to 0.5 | 0.1 to 0.5 | – | – | –
Cc1ccc(NC(=O)c2cc(C(F)(F)F)cnn2)cc1-c1ccnc(-c2ccnc(NCCO)c2)c1 [Example 129] | < 0.1 | < 0.1 | 0.1 to 0.5 | 0.1 to 0.5 | < 0.1 | < 0.1 | – | – | –
CNc1cc(-c2cc(-c3cc(NC(=O)c4cc(C(F)(F)F)cnn4)ccc3C)ccn2)ccn1 [Example 50] | 0.1 to 0.5 | < 0.1 | 0.1 to 0.5 | < 0.1 | 0.1 to 0.5 | 0.1 to 0.5 | – | – | –
Cc1ccc(NC(=O)c2cc(C(F)(F)F)cnn2)cc1-c1ccnc(-c2ccnc(NC(C)C)c2)c1 [Example 54] | 1 to 10 | 0.1 to 0.5 | 0.1 to 0.5 | 1 to 10 | 0.1 to 0.5 | 0.1 to 0.5 | – | – | –
Cc1ccc(NC(=O)c2cc(C(F)(F)F)cnn2)cc1-c1ccnc(-c2ccnc(NC(=O)C3CNCC3(F)F)c2)c1 (stereo not drawn) [Example 92, N-[3-[2-[2-[(4,4-difluoropyrrolidine-3-carbonyl)amino]-4-pyridyl]-4-pyridyl]-4-methyl-phenyl]-5-(trifluoromethyl)pyridazine-3-carboxamide] | < 0.1 | 0.1 to 0.5 | 0.5 to 1 | < 0.1 | 0.1 to 0.5 | 0.5 to 1 | – | – | –
Cc1ccc(NC(=O)c2cc(C(F)(F)F)cnn2)cc1-c1ccnc(-c2ccnc(NC(=O)C(F)(F)F)c2)c1 [Example 106] | < 0.1 | < 0.1 | < 0.1 | 0.1 to 0.5 | < 0.1 | < 0.1 | – | – | –
CNc1cc(-c2cc(NC(=O)c3cc(C(F)(F)F)cnn3)ccc2C)cc(-c2ccnc(NC(=O)C3CC3)c2)n1 [Example 118] | < 0.1 | < 0.1 | < 0.1 | < 0.1 | < 0.1 | < 0.1 | – | – | –
Cc1ccc(NC(=O)c2cc(C(C)(F)F)cnn2)cc1-c1ccnc(-c2cscn2)c1 [Example 143] | 1 to 10 | 0.1 to 0.5 | 1 to 10 | 1 to 10 | 0.1 to 0.5 | 0.1 to 0.5 | – | – | –
Cc1ccc(NC(=O)c2cncc(C(C)(F)F)c2)cc1-c1cncc(-c2cc(NC(=O)C3CC3)ncn2)c1 [Example 109] | < 0.1 | 0.1 to 0.5 | 1 to 10 | < 0.1 | < 0.1 | 0.1 to 0.5 | – | – | –
Cc1ccc(NC(=O)c2cc(C(F)(F)F)cnn2)cc1-c1ccnc(-c2ccnc(NC(=O)CC3CC3)c2)c1 [Example 22] | < 0.1 | 0.1 to 0.5 | < 0.1 | 0.1 to 0.5 | 0.1 to 0.5 | < 0.1 | – | – | –
Cc1ccc(NC(=O)c2cc(C(F)(F)F)cnn2)cc1-c1cc(OCCO)nc(-c2cn[nH]c2)c1 [Example 116] | < 0.1 | < 0.1 | < 0.1 | < 0.1 | < 0.1 | < 0.1 | – | – | –
COc1cnnc(C(=O)Nc2ccc(C)c(-c3ccnc(-c4ccnc(NC(=O)C5CC5)c4)c3)c2)c1 [Example 49] | < 0.1 | 0.5 to 1 | 1 to 10 | < 0.1 | 0.1 to 0.5 | 0.1 to 0.5 | – | – | –
Cc1cc(-c2cc(NC(=O)c3cncc(C(F)(F)F)c3)ccc2C)cc(-c2ccnc(NC(=O)C3CC3)c2)n1 [Example 81] | < 0.1 | – | 1 to 10 | < 0.1 | – | – | 1 to 10 | 0.1 to 0.5 | 1 to 10
Cc1ccc(NC(=O)c2cc(C(F)(F)F)cnn2)cc1-c1ccnc(-c2ccnc(NC(=O)C3CN(C)CC3(F)F)c2)c1 (stereo not drawn) [Example 94, N-(3-(2′-(4,4-difluoro-1-methylpyrrolidine-3-carboxamido)-[2,4′-bipyridin]-4-yl)-4-methylphenyl)-5-(trifluoromethyl)pyridazine-3-carboxamide] | < 0.1 | 0.5 to 1 | 1 to 10 | 0.1 to 0.5 | 0.1 to 0.5 | 1 to 10 | – | – | –
Cc1ccc(NC(=O)c2cc(C(F)(F)F)cnn2)cc1-c1ccnc(-c2ccnc(NC(=O)C3CCC3)c2)c1 [Example 8] | < 0.1 | 0.1 to 0.5 | < 0.1 | < 0.1 | 0.1 to 0.5 | < 0.1 | – | – | –
CNCC(=O)Nc1cc(-c2cc(-c3cc(NC(=O)c4cc(C(C)(F)F)cnn4)ccc3C)ccn2)ccn1 [Example 112] | < 0.1 | 0.1 to 0.5 | 0.1 to 0.5 | < 0.1 | 0.1 to 0.5 | 0.1 to 0.5 | – | – | –
Cc1ccc(NC(=O)c2ccc(C(F)(F)F)nn2)cc1-c1cncc(-c2cc(NC(=O)C3CC3)ncn2)c1 [Example 23] | < 0.1 | 1 to 10 | 1 to 10 | < 0.1 | 1 to 10 | 1 to 10 | – | – | –
Cc1ccc(NC(=O)c2cc(C(F)(F)F)cnn2)cc1-c1ccnc(-c2cnn(C)c2)c1 [Example 114] | < 0.1 | 0.1 to 0.5 | 0.1 to 0.5 | 0.1 to 0.5 | 0.1 to 0.5 | 0.1 to 0.5 | – | – | –
Cc1ccc(NC(=O)c2cc(C(C)(F)F)cnn2)cc1-c1ccnc(-c2ccoc2)c1 [Example 149] | 0.1 to 0.5 | 0.1 to 0.5 | 0.1 to 0.5 | 0.1 to 0.5 | 0.1 to 0.5 | 0.1 to 0.5 | – | – | –
Cc1ccc(NC(=O)c2cc(C(F)(F)F)cnn2)cc1-c1cc(NCCO)nc(-c2ccnc(NC(=O)C3CC3)c2)c1 [Example 113] | < 0.1 | < 0.1 | < 0.1 | < 0.1 | < 0.1 | < 0.1 | – | – | –
Cc1ccc(NC(=O)c2cc(P(C)(C)=O)cnn2)cc1-c1ccnc(-c2ccnc(NC(=O)C3CC3)c2)c1 [Example 111] | < 0.1 | 1 to 10 | 1 to 10 | < 0.1 | 1 to 10 | 1 to 10 | – | – | –
Cc1ccc(NC(=O)c2cc(C(F)(F)F)cnn2)cc1-c1ccnc(-c2ccsc2)c1 [Example 146] | 1 to 10 | < 0.1 | < 0.1 | 1 to 10 | < 0.1 | < 0.1 | – | – | –
Cc1ccc(NC(=O)c2cc(C#N)cnn2)cc1-c1cc(N[C@H](C)CO)nc(-c2ccnc(NC(=O)C3CC3)c2)c1 [Example 151] | 0.5 to 1 | 1 to 10 | 1 to 10 | 0.5 to 1 | 1 to 10 | 1 to 10 | – | – | –
